The text below walks through data of patent publication US8883782B2, “Spiro-tetracyclic ring compounds as beta-secretase modulators and methods of use” (Amgen Inc., priority 2010, dated 2014).

The test system of experiment [1] is Aβ40 in conditioned medium of cells stably expressing Amyloid Precursor Protein (APP). Briefly: In vitro BACE cell-based assay (Aβ40 in conditioned medium, sandwich ELISA). The note with it: read-out: HEK cell assay. Summed up:
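Conditioned medium from stably APP-expressing cells treated with compound dose series is assayed for Aβ40 by sandwich ELISA with time-resolved fluorescence detection. IC50 is calculated from percent inhibition of Aβ40 against compound concentration.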
(An ELISA detects its analyte on a solid surface through an enzyme-linked reagent.)

The target in experiment [2] is Beta Secretase enzyme (BACE) (Homo sapiens, UniProt P56817). Briefly: In vitro enzymatic BACE FRET (fluorescence resonance energy transfer) assay. Conditions: average IC50, enzyme assay; read-out: BACE 1 FRET assay. It counts as biochemical. Summed up:
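Fluorescence read after Tris quench to neutral pH. Reaction: 50 nM fluorophore/quencher peptide substrate, 1 h, in 0.05 M acetate pH 4.2, 10% DMSO final, 100 uM genapol.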

Where [3] appears, read: Homo sapiens, HEK293, average IC50.
Where [4] appears, read: Homo sapiens, HEK293, average IC50, HEK cells.

Read-outs that look alike come from different tables or passages of the source.

Beta Secretase enzyme (BACE), sequence (P56817 46-501, species assumed): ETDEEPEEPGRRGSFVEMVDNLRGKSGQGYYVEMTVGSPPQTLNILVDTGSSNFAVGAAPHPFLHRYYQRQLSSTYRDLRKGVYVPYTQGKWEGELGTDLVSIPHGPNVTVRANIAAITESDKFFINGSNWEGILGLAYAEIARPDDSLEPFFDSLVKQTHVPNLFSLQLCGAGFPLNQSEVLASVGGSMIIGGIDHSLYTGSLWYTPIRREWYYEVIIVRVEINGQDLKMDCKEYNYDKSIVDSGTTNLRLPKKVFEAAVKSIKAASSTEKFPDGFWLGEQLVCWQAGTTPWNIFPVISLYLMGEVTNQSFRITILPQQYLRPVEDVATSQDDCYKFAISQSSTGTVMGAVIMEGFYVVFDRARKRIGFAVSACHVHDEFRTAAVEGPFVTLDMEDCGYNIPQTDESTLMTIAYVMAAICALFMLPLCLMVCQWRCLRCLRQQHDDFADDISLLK

On to `COc1cc(F)c2c(c1)[C@]1(COC(N)=N1)c1cc(-c3cncc(CC#N)c3)ccc1O2` [Example 1074, (5-((4S)-2-amino-5′-fluoro-7′-methoxyspiro[1,3-oxazole-4,9′-xanthen]-2′-yl)-3-pyridinyl)acetonitrile], for which the IC50 in experiment [1] (setting [3]) was determined as 324 nM; in experiment [2], 131 nM.
For `NC1=N[C@@]2(CO1)c1cc(-c3cncnc3)ccc1Oc1cnc(-c3ccnc(F)c3)cc12` [Example 539, (5S)-3-(2-fluoro-4-pyridinyl)-7-(5-pyrimidinyl)spiro[chromeno[2,3-c]pyridine-5,4′-[1,3]oxazol]-2′-amine], the IC50 in experiment [1] (setting [4]) was found to be 38.2 nM; in experiment [2], 1.7 nM.
Turning to `CC(C)(C#N)COc1cc(F)c2c(c1)[C@]1(COC(N)=N1)c1cc(-c3cnccc3F)ccc1O2` [Example 605, 3-(((4S)-2-amino-4′-fluoro-7′-(4-fluoro-3-pyridinyl)spiro[1,3-oxazole-4,9′-xanthen]-2′-yl)oxy)-2,2-dimethylpropanenitrile], the IC50 in experiment [1] (setting [4]) came out at 10 nM; in experiment [2] it was 0.8 nM.
Regarding `Cc1ccnc(Oc2ccc3c(c2)[C@@]2(COC(N)=N2)c2cc(C4=CCOCC4)cc(F)c2O3)c1` [Example 1065, (4S)-2′-(3,6-dihydro-2H-pyran-4-yl)-4′-fluoro-7′-((4-methyl-2-pyridinyl)oxy)spiro[1,3-oxazole-4,9′-xanthen]-2-amine], the values for the IC50 in experiment [1] (setting [3]) and in experiment [2] were 1480 nM and 37.7 nM, respectively.
As for `N#Cc1cncc(-c2ccc3c(c2)[C@@]2(COC(N)=N2)c2cc(OCC4CCOCC4)cc(F)c2O3)c1` [Example 553, 5-((4S)-2-amino-5′-fluoro-7′-(tetrahydro-2H-pyran-4-ylmethoxy)spiro[1,3-oxazole-4,9′-xanthen]-2′-yl)-3-pyridinecarbonitrile], the IC50 in experiment [1] (setting [4]) amounted to 13.2 nM; in experiment [2] it was 2.4 nM.
As to `Cc1cc(-c2cc3c(c(F)n2)Oc2ccc(-c4cccnc4F)cc2[C@]32CSC(N)=N2)ccn1` (racemic) [Example 1032, (5R)-1-fluoro-7-(2-fluoro-3-pyridinyl)-3-(2-methyl-4-pyridinyl)spiro[chromeno[2,3-c]pyridine-5,4′-[1,3]thiazol]-2′-amine, (5S)-1-fluoro-7-(2-fluoro-3-pyridinyl)-3-(2-methyl-4-pyridinyl)spiro[chromeno[2,3-c]pyridine-5,4′-[1,3]thiazol]-2′-amine], the figures for the IC50 in experiment [1] and in experiment [2] were 3 nM and 0.4 nM, respectively.
Turning to `NC1=N[C@]2(CO1)c1cc(C3=CCOCC3)cc(F)c1Oc1ccc(-c3cccnc3F)c(F)c12` [Example 1047, (4R)-7′-(3,6-dihydro-2H-pyran-4-yl)-1′,5′-difluoro-2′-(2-fluoro-3-pyridinyl)spiro[1,3-oxazole-4,9′-xanthen]-2-amine], the IC50 in experiment [1] (setting [3]) came to 95 nM; in experiment [2] it was 4.6 nM.
Regarding `N#Cc1ncccc1-c1ccc2c(c1)[C@@]1(COC(N)=N1)c1cc(Cl)ncc1O2` [Example 387, 3-((5S)-2′-amino-3-chlorospiro[chromeno[2,3-c]pyridine-5,4′-[1,3]oxazol]-7-yl)-2-pyridinecarbonitrile], the IC50 in experiment [1] (setting [4]) amounted to 10000 nM; in experiment [2], 672 nM.
`COc1cc2c(c(F)c1F)Oc1ccc(Br)cc1[C@]21COC(N)=N1` [Example 1002, (4R)-7′-bromo-3′,4′-difluoro-2′-methoxyspiro[1,3-oxazole-4,9′-xanthen]-2-amine]: the results for the IC50 in experiment [1] (setting [3]) and in experiment [2] were at least 10000 nM and 18100 nM, respectively.
On the same counts, the results for `Cc1ccc(-c2ccc3c(c2)[C@@]2(COC(N)=N2)c2cc(C4=CCOCC4)ncc2O3)c(F)n1` [Example 253, (5S)-3-(3,6-dihydro-2H-pyran-4-yl)-7-(2-fluoro-6-methyl-3-pyridinyl)spiro[chromeno[2,3-c]pyridine-5,4′-[1,3]oxazol]-2′-amine] are 320 nM and 36 nM.
As for `NC1=N[C@]2(CO1)c1cc(Br)ccc1Oc1nc(F)ccc12` [Example 484, (5R)-7-bromo-2-fluorospiro[chromeno[2,3-b]pyridine-5,4′-[1,3]oxazol]-2′-amine], the IC50 in experiment [1] (setting [4]) was determined as 10000 nM; in experiment [2], 24600 nM.
In the case of “(4S)-2′-(((1R)-2,2-difluorocyclopropyl)methoxy)-4′-fluoro-7′-(2-fluoro-3-pyridinyl)spiro[1,3-thiazole-4,9′-xanthen]-2-amine, (4S)-2′-(((1S)-2,2-difluorocyclopropyl)methoxy)-4′-fluoro-7′-(2-fluoro-3-pyridinyl)spiro[1,3-thiazole-4,9′-xanthen]-2-amine [Example 1080]”, the IC50 in experiment [1] (average IC50) turned out to be 47 nM; in experiment [2], 0.5 nM.
With `CC1(C)C[C@H](c2cc3c(cn2)Oc2ccc(-c4cccnc4)cc2[C@@]32COC(N)=N2)CCO1` [Example 368, (5S)-3-((4R)-2,2-dimethyltetrahydro-2H-pyran-4-yl)-7-(3-pyridinyl)spiro[chromeno[2,3-c]pyridine-5,4′-[1,3]oxazol]-2′-amine], the IC50 was 37.9 nM in experiment [1] (setting [3]) and 10.4 nM in experiment [2].
As to `NC1=N[C@]2(CO1)c1cc(-c3cccnc3F)ccc1Oc1nc(F)c(I)cc12` [Example 899, (5R)-2-fluoro-7-(2-fluoro-3-pyridinyl)-3-iodospiro[chromeno[2,3-b]pyridine-5,4′-[1,3]oxazol]-2′-amine], the IC50 in experiment [1] (setting [4]) is at least 10000 nM; in experiment [2] it was 40000 nM.
Consider `CC1(/C=C/c2cnc3c(c2)[C@]2(COC(N)=N2)c2cc(-c4ccc(F)nc4)ccc2O3)COC1` [Example 176, (5S)-7-(6-fluoro-3-pyridinyl)-3-((E)-2-(3-methyl-3-oxetanyl)ethenyl)spiro[chromeno[2,3-b]pyridine-5,4′-[1,3]oxazol]-2′-amine], for which the IC50 in experiment [1] (setting [3]) came out at 3.2 nM; in experiment [2] it was 1.2 nM.
On the same counts, the results for `Cc1cc(-c2ccc3c(c2)[C@@]2(COC(N)=N2)c2cc(-c4cccnc4)ncc2O3)cnc1F` [Example 230, (5S)-7-(6-fluoro-5-methyl-3-pyridinyl)-3-(3-pyridinyl)spiro[chromeno[2,3-c]pyridine-5,4′-[1,3]oxazol]-2′-amine] are 36.3 nM and 8.1 nM.
On the same counts, the results for `CC#Cc1cncc(-c2cnc3c(c2)[C@]2(COC(N)=N2)c2cc(OC)ccc2O3)c1` [Example 775, (5S)-7-methoxy-3-(5-(1-propyn-1-yl)-3-pyridinyl)spiro[chromeno[2,3-b]pyridine-5,4′-[1,3]oxazol]-2′-amine] are at least 10000 nM and 4830 nM.
As to `COc1ncc(-c2ccc3c(c2)[C@@]2(COC(N)=N2)c2cc(N4CCC(F)(F)C4)ncc2O3)cn1` [Example 415, (5S)-3-(3,3-difluoro-1-pyrrolidinyl)-7-(2-methoxy-5-pyrimidinyl)spiro[chromeno[2,3-c]pyridine-5,4′-[1,3]oxazol]-2′-amine], the IC50 amounted to 367 nM in experiment [1] (setting [4]) and 81.7 nM in experiment [2].
`N#Cc1cc(-c2ccc3c(c2)[C@@]2(CSC(N)=N2)c2cc(C4=CCCOC4)cnc2O3)ccc1F` [Example 783, 5-((5S)-2′-amino-3-(5,6-dihydro-2H-pyran-3-yl)spiro[chromeno[2,3-b]pyridine-5,4′-[1,3]thiazol]-7-yl)-2-fluorobenzonitrile]: the IC50 in experiment [1] (setting [3]) came to 10 nM; in experiment [2], 0.6 nM.
Turning to `CC(C)(C)COc1ccc2c(c1)[C@]1(COC(N)=N1)c1cc(C3=CCCOC3)ccc1O2` [Example 910, (4S)-2′-(5,6-dihydro-2H-pyran-3-yl)-7′-(2,2-dimethylpropoxy)spiro[1,3-oxazole-4,9′-xanthen]-2-amine], the values for the IC50 in experiment [1] (setting [4]) and in experiment [2] were 1770 nM and 22.3 nM, respectively.
